According to ChEMBL document CHEMBL1201862, “PubChem BioAssay data set” (2004):
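Cells were grown in 96-well plates and exposed to each compound for 48 hours at five concentrations; endpoints were interpolated linearly between bracketing concentrations, or set to the highest concentration if not reached. GI50: concentration for 50% inhibition of growth.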 Activity calls are given as the source filed them. Cut-off read from the data, not from the text of the source: active = GI50 up to about 1.1 µM and inactive = higher.

Key:
Assay in all cases: DTP human tumour cell line panel, 48 h
786-0 = test system: 786-0
A498 = test system: A498
A549 = test system: A549
ACHN = test system: ACHN
BT-549 = test system: BT-549
CAKI-1 = test system: CAKI-1
CCRF-CEM = test system: CCRF-CEM
COLO 205 = test system: COLO 205
DMS-114 = test system: DMS-114
DMS-273 = test system: DMS-273
DU-145 = test system: DU-145
EKVX = test system: EKVX
HCC 2998 = test system: HCC 2998
HCT-116 = test system: HCT-116
HCT-15 = test system: HCT-15
HL-60 = test system: HL-60
HOP-18 = test system: HOP-18
HOP-62 = test system: HOP-62
HOP-92 = test system: HOP-92
HT-29 = test system: HT-29
Hs-578T = test system: Hs-578T
IGROV-1 = test system: IGROV-1
K562 = test system: K562
KM-20L2 = test system: KM-20L2
KM12 = test system: KM12
LOX IMVI = test system: LOX IMVI
LXFL 529 = test system: LXFL 529
M14 = test system: M14
M19-MEL = test system: M19-MEL
MCF7 = test system: MCF7
MDA-MB-231 = test system: MDA-MB-231
MDA-MB-435 = test system: MDA-MB-435
MDA-N = test system: MDA-N
MOLT-4 = test system: MOLT-4
Malme-3M = test system: Malme-3M
NCI-H226 = test system: NCI-H226
NCI-H23 = test system: NCI-H23
NCI-H460 = test system: NCI-H460
NCI-H522 = test system: NCI-H522
NCI/ADR-RES = test system: NCI/ADR-RES
OVCAR-3 = test system: OVCAR-3
OVCAR-4 = test system: OVCAR-4
OVCAR-5 = test system: OVCAR-5
OVCAR-8 = test system: OVCAR-8
PC-3 = test system: PC-3
RPMI-8226 = test system: RPMI-8226
RXF 393 = test system: RXF 393
SF-268 = test system: SF-268
SF-295 = test system: SF-295
SF-539 = test system: SF-539
SK-MEL-28 = test system: SK-MEL-28
SK-MEL-2 = test system: SK-MEL-2
SK-MEL-5 = test system: SK-MEL-5
SK-OV-3 = test system: SK-OV-3
SN12C = test system: SN12C
SNB-19 = test system: SNB-19
SNB-75 = test system: SNB-75
SNB-78 = test system: SNB-78
SR = test system: SR
SW-620 = test system: SW-620
T47D = test system: T47D
TK-10 = test system: TK-10
U-251 = test system: U-251
UACC-257 = test system: UACC-257
UACC-62 = test system: UACC-62
UO-31 = test system: UO-31

Q: What does the source list for COC1(OC)C2(Cl)C(Cl)=C(Cl)C1(Cl)C1c3ccc(C(C)=O)c4cccc(c34)C12 (stereo unspecified)?
A: GI50 (786-0): 45.7 µM (inactive); GI50 (A498): 14.3 µM (inactive); GI50 (A549): 23 µM (inactive); GI50 (ACHN): 19 µM (inactive); GI50 (BT-549): 47.6 µM (inactive); GI50 (CAKI-1): > 37.4 µM (inactive); GI50 (CCRF-CEM): 13.8 µM (inactive); GI50 (COLO 205): 12.8 µM (inactive); GI50 (DMS-114): 15.9 µM (inactive); GI50 (DMS-273): 3.89 µM (inactive); GI50 (DU-145): 26.2 µM (inactive); GI50 (EKVX): 41.6 µM (inactive); GI50 (HCC 2998): 10.2 µM (inactive); GI50 (HCT-116): 6.47 µM (inactive); GI50 (HCT-15): 6.24 µM; GI50 (HL-60): 4.42 µM (inactive); GI50 (HOP-18): > 100 µM (inactive); GI50 (HOP-62): 63.4 µM (inactive); GI50 (HOP-92): 2.89 µM (inactive); GI50 (HT-29): 5.24 µM (inactive); GI50 (Hs-578T): > 100 µM (inactive); GI50 (IGROV-1): > 94.6 µM (inactive); GI50 (K562): 6.38 µM (inactive); GI50 (KM-20L2): 4.53 µM (inactive); GI50 (KM12): 11.7 µM (inactive); GI50 (LOX IMVI): 22.5 µM (inactive); GI50 (LXFL 529): 25.6 µM (inactive); GI50 (M14): 11.9 µM (inactive); GI50 (M19-MEL): 25.6 µM (inactive); GI50 (MCF7): 5.5 µM (inactive); GI50 (MDA-MB-231): 9.73 µM (inactive); GI50 (MDA-MB-435): 7.67 µM (inactive); GI50 (MDA-N): 14.8 µM (inactive); GI50 (MOLT-4): 5.47 µM (inactive); GI50 (Malme-3M): 12.3 µM (inactive); GI50 (NCI-H226): 17 µM (inactive); GI50 (NCI-H23): 7.16 µM (inactive); GI50 (NCI-H460): 14.5 µM (inactive); GI50 (NCI-H522): 13.3 µM (inactive); GI50 (NCI/ADR-RES): 36.6 µM (inactive); GI50 (OVCAR-3): 26.3 µM (inactive); GI50 (OVCAR-4): 27.9 µM (inactive); GI50 (OVCAR-5): 28.6 µM (inactive); GI50 (OVCAR-8): 48.6 µM (inactive); GI50 (PC-3): 14.2 µM (inactive); GI50 (RPMI-8226): 5.82 µM (inactive); GI50 (RXF 393): 27.7 µM (inactive); GI50 (SF-268): 61.1 µM (inactive); GI50 (SF-295): 26 µM (inactive); GI50 (SF-539): 64 µM (inactive); GI50 (SK-MEL-28): 42.8 µM (inactive); GI50 (SK-MEL-2): 17.3 µM (inactive); GI50 (SK-MEL-5): 10.4 µM (inactive); GI50 (SK-OV-3): 52.1 µM (inactive); GI50 (SN12C): 10.6 µM (inactive); GI50 (SNB-19): > 59 µM (inactive); GI50 (SNB-75): 25.9 µM (inactive); GI50 (SNB-78): 28.3 µM (inactive); GI50 (SR): 13.7 µM (inactive); GI50 (SW-620): > 53.6 µM (inactive); GI50 (T47D): 20.8 µM (inactive); GI50 (TK-10): 71 µM (inactive); GI50 (U-251): 30.3 µM (inactive); GI50 (UACC-257): 25.6 µM (inactive); GI50 (UACC-62): 23.5 µM (inactive); GI50 (UO-31): 27.5 µM (inactive)
